The values below come from the supplement of paper PMC10307832.

Holding throughout (experiment): relative viability (nuclei count vs DMSO), 5 days (fraction); higher = more cells survive
Compound in the experiment “Vorinostat + Trametinib”: O=C(CCCCCCC(=O)Nc1ccccc1)NO [Vorinostat] + CC(=O)Nc1cccc(-n2c(=O)n(C3CC3)c(=O)c3c(Nc4ccc(I)cc4F)n(C)c(=O)c(C)c32)c1 [Trametinib] (partner 0.02 µM)
Summed up:
(§1)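 Dosing by pin tool came one day after lung cancer cell lines were seeded in 1536-well plates, using either one drug or a fixed anchor-drug dose plus five library-drug doses (not always all listed) in √10 steps. After 5 days, nuclei were counted on 4× images. Relative viability is treated-well nuclei count divided by vehicle-well nuclei count, and values are medians of duplicate plates.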

Compound in the experiment “Vorinostat + Bortezomib”: O=C(CCCCCCC(=O)Nc1ccccc1)NO [Vorinostat] + CC(C)C[C@H](NC(=O)[C@H](Cc1ccccc1)NC(=O)c1cnccn1)B(O)O [Bortezomib] (partner 0.002 µM)
Summed up:
as §1

Compound in the experiment “Vorinostat + Foretinib”: O=C(CCCCCCC(=O)Nc1ccccc1)NO [Vorinostat] + COc1cc2c(Oc3ccc(NC(=O)C4(C(=O)Nc5ccc(F)cc5)CC4)cc3F)ccnc2cc1OCCCN1CCOCC1 [Foretinib] (partner 0.25 µM)
Summed up: as §1

Compound in the experiment “Vorinostat + Tozasertib”: O=C(CCCCCCC(=O)Nc1ccccc1)NO [Vorinostat] + Cc1cc(Nc2cc(N3CCN(C)CC3)nc(Sc3ccc(NC(=O)C4CC4)cc3)n2)n[nH]1 [Tozasertib] (partner 0.1 µM)
Summed up: as §1

Compound in the experiment “Vorinostat + Pemetrexed”: O=C(CCCCCCC(=O)Nc1ccccc1)NO [Vorinostat] + Nc1nc2[nH]cc(CCc3ccc(C(=O)N[C@@H](CCC(=O)O)C(=O)O)cc3)c2c(=O)[nH]1 [Pemetrexed] (partner 0.2 µM)
The gist of the method: as §1

With NCI-H2087, the relative viability stood at 0.202 in the experiment with Vorinostat + Trametinib (first compound 0.253 µM); 0.158 in the experiment with Vorinostat + Trametinib (first compound 0.8 µM); 0.141 with Vorinostat + Trametinib (first compound 2.53 µM); 0.087 with Vorinostat + Trametinib (first compound 8 µM); 0.739 with Vorinostat + Bortezomib (first compound 0.253 µM); 0.608 with Vorinostat + Bortezomib (first compound 0.8 µM). Moreover, the relative viability with Vorinostat + Bortezomib (first compound 2.53 µM) came out at 0.159; in the experiment with Vorinostat + Bortezomib (first compound 8 µM), 0.115; with Vorinostat + Foretinib (first compound 0.253 µM), 1.34; with Vorinostat + Foretinib (first compound 0.8 µM) it was 0.615; in the experiment with Vorinostat + Foretinib (first compound 2.53 µM), 0.153; with Vorinostat + Foretinib (first compound 8 µM), 0.0924. For the same cell line, the relative viability in the experiment with Vorinostat + Tozasertib (first compound 0.253 µM) is 0.262; with Vorinostat + Tozasertib (first compound 0.8 µM) it was 0.14; in the experiment with Vorinostat + Tozasertib (first compound 2.53 µM), 0.0617; with Vorinostat + Tozasertib (first compound 8 µM) it was 0.0825; in the experiment with Vorinostat + Pemetrexed (first compound 0.253 µM), 0.637; in the experiment with Vorinostat + Pemetrexed (first compound 0.8 µM), 0.617. For the same cell line, the relative viability worked out at 0.347 with Vorinostat + Pemetrexed (first compound 2.53 µM) and 0.132 with Vorinostat + Pemetrexed (first compound 8 µM).
Turning to PC-14, the relative viability with Vorinostat + Trametinib (first compound 0.253 µM) was found to be 0.785; with Vorinostat + Trametinib (first compound 0.8 µM), 0.483; with Vorinostat + Trametinib (first compound 2.53 µM), 0.155; with Vorinostat + Trametinib (first compound 8 µM), 0.0461; with Vorinostat + Bortezomib (first compound 0.253 µM), 0.913; with Vorinostat + Bortezomib (first compound 0.8 µM), 0.847. In addition, the relative viability is 0.102 with Vorinostat + Bortezomib (first compound 2.53 µM); 0.073 with Vorinostat + Bortezomib (first compound 8 µM); 1.15 with Vorinostat + Foretinib (first compound 0.253 µM); 1.04 with Vorinostat + Foretinib (first compound 0.8 µM); 0.62 with Vorinostat + Foretinib (first compound 2.53 µM); 0.0829 in the experiment with Vorinostat + Foretinib (first compound 8 µM). The relative viability with Vorinostat + Tozasertib (first compound 0.253 µM) is 0.586; with Vorinostat + Tozasertib (first compound 0.8 µM), 0.389; with Vorinostat + Tozasertib (first compound 2.53 µM), 0.0619; with Vorinostat + Tozasertib (first compound 8 µM), 0.018; in the experiment with Vorinostat + Pemetrexed (first compound 0.253 µM) it was 0.162; in the experiment with Vorinostat + Pemetrexed (first compound 0.8 µM), 0.177. Further, the results for the relative viability in the experiment with Vorinostat + Pemetrexed (first compound 2.53 µM) and with Vorinostat + Pemetrexed (first compound 8 µM) were 0.14 and 0.0507, respectively.
LXF-289: the relative viability with Vorinostat + Trametinib (first compound 0.253 µM) was found to be 0.709; in the experiment with Vorinostat + Trametinib (first compound 0.8 µM), 0.639; in the experiment with Vorinostat + Trametinib (first compound 2.53 µM), 0.424; with Vorinostat + Trametinib (first compound 8 µM), 0.0759; with Vorinostat + Bortezomib (first compound 0.253 µM), 1.08; with Vorinostat + Bortezomib (first compound 0.8 µM) it was 0.923. In addition, the relative viability with Vorinostat + Bortezomib (first compound 2.53 µM) was 0.348; in the experiment with Vorinostat + Bortezomib (first compound 8 µM) it was 0.057; with Vorinostat + Foretinib (first compound 0.253 µM), 0.981; in the experiment with Vorinostat + Foretinib (first compound 0.8 µM), 0.97; with Vorinostat + Foretinib (first compound 2.53 µM), 0.3; with Vorinostat + Foretinib (first compound 8 µM), 0.0942. Further, the relative viability came to 0.209 with Vorinostat + Tozasertib (first compound 0.253 µM); 0.165 with Vorinostat + Tozasertib (first compound 0.8 µM); 0.0836 in the experiment with Vorinostat + Tozasertib (first compound 2.53 µM); 0.0447 with Vorinostat + Tozasertib (first compound 8 µM); 0.905 with Vorinostat + Pemetrexed (first compound 0.253 µM); 0.794 with Vorinostat + Pemetrexed (first compound 0.8 µM). In addition, the relative viability is 0.554 with Vorinostat + Pemetrexed (first compound 2.53 µM) and 0.0613 with Vorinostat + Pemetrexed (first compound 8 µM).
For the cell line NCI-H23, the relative viability with Vorinostat + Trametinib (first compound 0.253 µM) stood at 0.606; in the experiment with Vorinostat + Trametinib (first compound 0.8 µM) it was 0.405; with Vorinostat + Trametinib (first compound 2.53 µM), 0.166; with Vorinostat + Trametinib (first compound 8 µM), 0.129; in the experiment with Vorinostat + Bortezomib (first compound 0.253 µM), 1.19; with Vorinostat + Bortezomib (first compound 0.8 µM), 1.07. The relative viability with Vorinostat + Bortezomib (first compound 2.53 µM) is 0.251; with Vorinostat + Bortezomib (first compound 8 µM), 0.128; with Vorinostat + Foretinib (first compound 0.253 µM) it was 1.05; with Vorinostat + Foretinib (first compound 0.8 µM), 0.724; with Vorinostat + Foretinib (first compound 2.53 µM), 0.336; in the experiment with Vorinostat + Foretinib (first compound 8 µM) it was 0.129. Also, the relative viability in the experiment with Vorinostat + Tozasertib (first compound 0.253 µM) turned out to be 0.275; with Vorinostat + Tozasertib (first compound 0.8 µM) it was 0.269; in the experiment with Vorinostat + Tozasertib (first compound 2.53 µM), 0.105; with Vorinostat + Tozasertib (first compound 8 µM) it was 0.124; in the experiment with Vorinostat + Pemetrexed (first compound 0.253 µM) it was 0.842; with Vorinostat + Pemetrexed (first compound 0.8 µM), 0.713. Besides, the relative viability with Vorinostat + Pemetrexed (first compound 2.53 µM) came to 0.32; in the experiment with Vorinostat + Pemetrexed (first compound 8 µM) it was 0.181.
With NCI-H322M, the relative viability with Vorinostat + Trametinib (first compound 0.253 µM) was found to be 0.595; with Vorinostat + Trametinib (first compound 0.8 µM) it was 0.501; with Vorinostat + Trametinib (first compound 2.53 µM), 0.552; with Vorinostat + Trametinib (first compound 8 µM), 0.408; with Vorinostat + Bortezomib (first compound 0.253 µM), 1.4; with Vorinostat + Bortezomib (first compound 0.8 µM) it was 1.25. The relative viability with Vorinostat + Bortezomib (first compound 2.53 µM) was 0.715; in the experiment with Vorinostat + Bortezomib (first compound 8 µM), 0.392; with Vorinostat + Foretinib (first compound 0.253 µM), 1.1; with Vorinostat + Foretinib (first compound 0.8 µM) it was 0.925; with Vorinostat + Foretinib (first compound 2.53 µM) it was 0.428; with Vorinostat + Foretinib (first compound 8 µM) it was 0.309. Further, the relative viability stood at 0.51 in the experiment with Vorinostat + Tozasertib (first compound 0.253 µM); 0.496 with Vorinostat + Tozasertib (first compound 0.8 µM); 0.381 in the experiment with Vorinostat + Tozasertib (first compound 2.53 µM); 0.298 with Vorinostat + Tozasertib (first compound 8 µM); 0.764 with Vorinostat + Pemetrexed (first compound 0.253 µM); 0.603 in the experiment with Vorinostat + Pemetrexed (first compound 0.8 µM). The values for the relative viability with Vorinostat + Pemetrexed (first compound 2.53 µM) and with Vorinostat + Pemetrexed (first compound 8 µM) were 0.569 and 0.355, respectively.
In the case of NCI-H1651, the relative viability was determined as 0.869 in the experiment with Vorinostat + Trametinib (first compound 0.253 µM); 0.76 with Vorinostat + Trametinib (first compound 0.8 µM); 0.343 with Vorinostat + Trametinib (first compound 2.53 µM); 0.062 with Vorinostat + Trametinib (first compound 8 µM); 0.934 with Vorinostat + Bortezomib (first compound 0.253 µM); 0.992 with Vorinostat + Bortezomib (first compound 0.8 µM). The relative viability in the experiment with Vorinostat + Bortezomib (first compound 2.53 µM) was found to be 0.807; with Vorinostat + Bortezomib (first compound 8 µM), 0.1; with Vorinostat + Foretinib (first compound 0.253 µM) it was 0.879; with Vorinostat + Foretinib (first compound 0.8 µM), 0.791; with Vorinostat + Foretinib (first compound 2.53 µM), 0.228; with Vorinostat + Foretinib (first compound 8 µM), 0.0797. In addition, the relative viability in the experiment with Vorinostat + Tozasertib (first compound 0.253 µM) was 0.609; in the experiment with Vorinostat + Tozasertib (first compound 0.8 µM), 0.326; with Vorinostat + Tozasertib (first compound 2.53 µM), 0.153; in the experiment with Vorinostat + Tozasertib (first compound 8 µM), 0.0653; with Vorinostat + Pemetrexed (first compound 0.253 µM), 0.614; with Vorinostat + Pemetrexed (first compound 0.8 µM), 0.577. Further, the relative viability was found to be 0.377 with Vorinostat + Pemetrexed (first compound 2.53 µM) and 0.0787 with Vorinostat + Pemetrexed (first compound 8 µM).
As to NCI-H1755, the relative viability was found to be 0.791 with Vorinostat + Trametinib (first compound 0.253 µM); 0.77 in the experiment with Vorinostat + Trametinib (first compound 0.8 µM); 0.602 with Vorinostat + Trametinib (first compound 2.53 µM); 0.219 in the experiment with Vorinostat + Trametinib (first compound 8 µM); 0.95 in the experiment with Vorinostat + Bortezomib (first compound 0.253 µM); 0.934 with Vorinostat + Bortezomib (first compound 0.8 µM). Moreover, the relative viability turned out to be 0.2 with Vorinostat + Bortezomib (first compound 2.53 µM); 0.174 in the experiment with Vorinostat + Bortezomib (first compound 8 µM); 0.997 with Vorinostat + Foretinib (first compound 0.253 µM); 0.971 with Vorinostat + Foretinib (first compound 0.8 µM); 0.525 with Vorinostat + Foretinib (first compound 2.53 µM); 0.202 with Vorinostat + Foretinib (first compound 8 µM). The relative viability in the experiment with Vorinostat + Tozasertib (first compound 0.253 µM) stood at 0.613; with Vorinostat + Tozasertib (first compound 0.8 µM), 0.51; with Vorinostat + Tozasertib (first compound 2.53 µM), 0.319; with Vorinostat + Tozasertib (first compound 8 µM) it was 0.179; with Vorinostat + Pemetrexed (first compound 0.253 µM), 0.458; in the experiment with Vorinostat + Pemetrexed (first compound 0.8 µM), 0.382. Further, the values for the relative viability with Vorinostat + Pemetrexed (first compound 2.53 µM) and in the experiment with Vorinostat + Pemetrexed (first compound 8 µM) were 0.285 and 0.177, respectively.
